According to ChEMBL document CHEMBL1687752, “Impact of antifungal prophylaxis on colonization and azole susceptibility of Candida species” (2009):
Converted amounts (≈) assume the structure as drawn.

tested on: Candida albicans; assay: Antifungal activity against Candida albicans isolated from HSCT recipients with acute or chronic GVHD receiving posaconazole by broth microdilution method; format: functional; conditions: not given

Row | Compound | MIC50 [µg/mL] | MIC90 [µg/mL]
1 | CC[C@@H]([C@H](C)O)n1ncn(-c2ccc(N3CCN(c4ccc(OC[C@@H]5CO[C@@](Cn6cncn6)(c6ccc(F)cc6F)C5)cc4)CC3)cc2)c1=O [POSACONAZOLE] | 0.03 (≈ 0.0428 µM) | 0.12 (≈ 0.171 µM)

tested on: Candida albicans; assay: Antifungal activity against Candida albicans isolated from neutropenic subjects with AML or MDS receiving posaconazole assessed as maximum MIC by broth microdilution method; format: functional; conditions: not given

Row | Compound | MIC [µg/mL]
2 | CC[C@@H]([C@H](C)O)n1ncn(-c2ccc(N3CCN(c4ccc(OC[C@@H]5CO[C@@](Cn6cncn6)(c6ccc(F)cc6F)C5)cc4)CC3)cc2)c1=O [POSACONAZOLE] | 0.03

tested on: Nakaseomyces glabratus; assay: Antifungal activity against 177 days cultured Candida glabrata isolated from HSCT recipient with acute or chronic GVHD mouth receiving antifungal therapy for 172 days after 114 days of prophylaxis by broth microdilution method; format: functional; conditions: not given

Row | Compound | MIC [µg/mL]
3 | CC[C@@H]([C@H](C)O)n1ncn(-c2ccc(N3CCN(c4ccc(OC[C@@H]5CO[C@@](Cn6cncn6)(c6ccc(F)cc6F)C5)cc4)CC3)cc2)c1=O [POSACONAZOLE] | 1 (≈ 1.43 µM)

tested on: Nakaseomyces glabratus; assay: Antifungal activity against 25 days cultured Candida glabrata isolated from invasive fungal infected subject blood receiving antifungal therapy for 25 days after 3 days of prophylaxis by broth microdilution method; format: functional; conditions: not given

Row | Compound | MIC [µg/mL]
4 | CC[C@@H]([C@H](C)O)n1ncn(-c2ccc(N3CCN(c4ccc(OC[C@@H]5CO[C@@](Cn6cncn6)(c6ccc(F)cc6F)C5)cc4)CC3)cc2)c1=O [POSACONAZOLE] | 0.5 (≈ 0.713 µM)

tested on: Candida albicans; assay: Antifungal activity against Candida albicans isolated from HSCT recipient 301 with acute or chronic GVHD mouth after 114 days prophylaxis by broth microdilution method; format: functional; conditions: not given

Row | Compound | MIC [µg/mL]
5 | CC[C@@H]([C@H](C)O)n1ncn(-c2ccc(N3CCN(c4ccc(OC[C@@H]5CO[C@@](Cn6cncn6)(c6ccc(F)cc6F)C5)cc4)CC3)cc2)c1=O [POSACONAZOLE] | < 0.015

tested on: Nakaseomyces glabratus; assay: Antifungal activity against -2 days cultured Candida glabrata isolated from HSCT recipient with acute or chronic GVHD mouth receiving antifungal therapy for 172 days after 114 days of prophylaxis by broth microdilution method; format: functional; conditions: not given

Row | Compound | MIC [µg/mL]
6 | CC[C@@H]([C@H](C)O)n1ncn(-c2ccc(N3CCN(c4ccc(OC[C@@H]5CO[C@@](Cn6cncn6)(c6ccc(F)cc6F)C5)cc4)CC3)cc2)c1=O [POSACONAZOLE] | 0.5 (≈ 0.713 µM)

tested on: Nakaseomyces glabratus; assay: Antifungal activity against 60 days cultured Candida glabrata isolated from HSCT recipient with acute or chronic GVHD mouth receiving antifungal therapy for 75 days after 33 days of prophylaxis by broth microdilution method; format: functional; conditions: not given

Row | Compound | MIC [µg/mL]
7 | CC[C@@H]([C@H](C)O)n1ncn(-c2ccc(N3CCN(c4ccc(OC[C@@H]5CO[C@@](Cn6cncn6)(c6ccc(F)cc6F)C5)cc4)CC3)cc2)c1=O [POSACONAZOLE] | 4 (≈ 5.71 µM)

tested on: Nakaseomyces glabratus; assay: Antifungal activity against 62 days cultured Candida glabrata isolated from HSCT recipient with acute or chronic GVHD mouth receiving antifungal therapy for 143 days after 116 days of prophylaxis by broth microdilution method; format: functional; conditions: not given

Row | Compound | MIC [µg/mL]
8 | CC[C@@H]([C@H](C)O)n1ncn(-c2ccc(N3CCN(c4ccc(OC[C@@H]5CO[C@@](Cn6cncn6)(c6ccc(F)cc6F)C5)cc4)CC3)cc2)c1=O [POSACONAZOLE] | 4 (≈ 5.71 µM)

tested on: Nakaseomyces glabratus; assay: Antifungal activity against Candida glabrata isolated from neutropenic subject 1318 with AML or MDS stool receiving antifungal drug after 36 days prophylaxis by broth microdilution method; format: functional; conditions: not given

Row | Compound | MIC [µg/mL]
9 | CC[C@@H]([C@H](C)O)n1ncn(-c2ccc(N3CCN(c4ccc(OC[C@@H]5CO[C@@](Cn6cncn6)(c6ccc(F)cc6F)C5)cc4)CC3)cc2)c1=O [POSACONAZOLE] | 8 (≈ 11.4 µM)

tested on: Nakaseomyces glabratus; assay: Antifungal activity against 111 days cultured Candida glabrata isolated from HSCT recipient with acute or chronic GVHD mouth receiving antifungal therapy for 143 days after 116 days of prophylaxis by broth microdilution method; format: functional; conditions: not given

Row | Compound | MIC [µg/mL]
10 | CC[C@@H]([C@H](C)O)n1ncn(-c2ccc(N3CCN(c4ccc(OC[C@@H]5CO[C@@](Cn6cncn6)(c6ccc(F)cc6F)C5)cc4)CC3)cc2)c1=O [POSACONAZOLE] | 4 (≈ 5.71 µM)

tested on: Candida albicans; assay: Antifungal activity against Candida albicans isolated from HSCT recipient 462 with acute or chronic GVHD mouth after 112 days prophylaxis by broth microdilution method; format: functional; conditions: not given

Row | Compound | MIC [µg/mL]
11 | CC[C@@H]([C@H](C)O)n1ncn(-c2ccc(N3CCN(c4ccc(OC[C@@H]5CO[C@@](Cn6cncn6)(c6ccc(F)cc6F)C5)cc4)CC3)cc2)c1=O [POSACONAZOLE] | < 0.015

tested on: Nakaseomyces glabratus; assay: Antifungal activity against 56 days cultured Candida glabrata isolated from HSCT recipient with acute or chronic GVHD mouth receiving antifungal therapy for 172 days after 114 days of prophylaxis by broth microdilution method; format: functional; conditions: not given

Row | Compound | MIC [µg/mL]
12 | CC[C@@H]([C@H](C)O)n1ncn(-c2ccc(N3CCN(c4ccc(OC[C@@H]5CO[C@@](Cn6cncn6)(c6ccc(F)cc6F)C5)cc4)CC3)cc2)c1=O [POSACONAZOLE] | 0.25 (≈ 0.357 µM)

tested on: Nakaseomyces glabratus; assay: Antifungal activity against Candida glabrata isolated from HSCT recipient 002 with acute or chronic GVHD mouth after 116 days prophylaxis by broth microdilution method; format: functional; conditions: not given

Row | Compound | MIC [µg/mL]
13 | CC[C@@H]([C@H](C)O)n1ncn(-c2ccc(N3CCN(c4ccc(OC[C@@H]5CO[C@@](Cn6cncn6)(c6ccc(F)cc6F)C5)cc4)CC3)cc2)c1=O [POSACONAZOLE] | 0.5 (≈ 0.713 µM)

tested on: Nakaseomyces glabratus; assay: Antifungal activity against 1 day cultured Candida glabrata isolated from neutropenic subject with AML or MDS stool receiving antifungal therapy for 25 days after 3 days of prophylaxis by broth microdilution method; format: functional; conditions: not given

Row | Compound | MIC [µg/mL]
14 | CC[C@@H]([C@H](C)O)n1ncn(-c2ccc(N3CCN(c4ccc(OC[C@@H]5CO[C@@](Cn6cncn6)(c6ccc(F)cc6F)C5)cc4)CC3)cc2)c1=O [POSACONAZOLE] | 4 (≈ 5.71 µM)

tested on: Nakaseomyces glabratus; assay: Antifungal activity against 59 days cultured Candida glabrata isolated from HSCT recipient with acute or chronic GVHD mouth receiving antifungal therapy for 75 days after 33 days of prophylaxis by broth microdilution method; format: functional; conditions: not given

Row | Compound | MIC [µg/mL]
15 | CC[C@@H]([C@H](C)O)n1ncn(-c2ccc(N3CCN(c4ccc(OC[C@@H]5CO[C@@](Cn6cncn6)(c6ccc(F)cc6F)C5)cc4)CC3)cc2)c1=O [POSACONAZOLE] | 1 (≈ 1.43 µM)

tested on: Nakaseomyces glabratus; assay: Antifungal activity against 43 days cultured Candida glabrata isolated from HSCT recipient with acute or chronic GVHD mouth receiving antifungal therapy for 168 days after 113 days of prophylaxis by broth microdilution method; format: functional; conditions: not given

Row | Compound | MIC [µg/mL]
16 | CC[C@@H]([C@H](C)O)n1ncn(-c2ccc(N3CCN(c4ccc(OC[C@@H]5CO[C@@](Cn6cncn6)(c6ccc(F)cc6F)C5)cc4)CC3)cc2)c1=O [POSACONAZOLE] | 2 (≈ 2.85 µM)

tested on: Candida albicans; assay: Antifungal activity against Candida albicans isolated from neutropenic subjects with AML or MDS prior to initiation of posaconazole therapy assessed as maximum MIC by broth microdilution method; format: functional; conditions: not given

Row | Compound | MIC [µg/mL]
17 | CC[C@@H]([C@H](C)O)n1ncn(-c2ccc(N3CCN(c4ccc(OC[C@@H]5CO[C@@](Cn6cncn6)(c6ccc(F)cc6F)C5)cc4)CC3)cc2)c1=O [POSACONAZOLE] | 0.06

tested on: Nakaseomyces glabratus; assay: Antifungal activity against 1 day cultured Candida glabrata isolated from HSCT recipient with acute or chronic GVHD mouth receiving antifungal therapy for 143 days after 116 days of prophylaxis by broth microdilution method; format: functional; conditions: not given

Row | Compound | MIC [µg/mL]
18 | CC[C@@H]([C@H](C)O)n1ncn(-c2ccc(N3CCN(c4ccc(OC[C@@H]5CO[C@@](Cn6cncn6)(c6ccc(F)cc6F)C5)cc4)CC3)cc2)c1=O [POSACONAZOLE] | 0.5 (≈ 0.713 µM)

tested on: Nakaseomyces glabratus; assay: Antifungal activity against Candida glabrata isolated from neutropenic subject 1102 with AML or MDS stool receiving antifungal drug after 26 days prophylaxis by broth microdilution method; format: functional; conditions: 624 h

Row | Compound | MIC [µg/mL]
19 | CC[C@@H]([C@H](C)O)n1ncn(-c2ccc(N3CCN(c4ccc(OC[C@@H]5CO[C@@](Cn6cncn6)(c6ccc(F)cc6F)C5)cc4)CC3)cc2)c1=O [POSACONAZOLE] | > 8

tested on: Candida tropicalis; assay: Antifungal activity against 9 days cultured Candida tropicalis isolated from neutropenic subject with AML or MDS stool receiving antifungal therapy for 45 days after 24 days of prophylaxis by broth microdilution method; format: functional; conditions: not given

Row | Compound | MIC [µg/mL]
20 | CC[C@@H]([C@H](C)O)n1ncn(-c2ccc(N3CCN(c4ccc(OC[C@@H]5CO[C@@](Cn6cncn6)(c6ccc(F)cc6F)C5)cc4)CC3)cc2)c1=O [POSACONAZOLE] | < 0.015
